Literature values in patent publication US12226503B2, “Prebiotic skin care compositions containing carboxylic acids” (priority 2019, dated 2025).

details: toxic or irritant for humans or on skin

Compound | Toxicity
O=C(O)CC(O)C(=O)O (racemic) [D,L-Malic acid] | +
CCC(N)C(=O)O (racemic) [D,L-α-amino-N-butyric acid] | +
CCCCCCC(N)C(=O)O (racemic) [D,L-α-amino-caprylic acid] | +
O=C(O)c1ccc(O)cc1 [4-hydroxybenzoic acid] | +
O=C(O)[C@@H](O)[C@@H](O)[C@H](O)[C@@H](O)C(=O)O [D-saccharic acid] | +
COc1cc(/C=C/C(=O)O)ccc1O [Ferulic acid] | +
O=C(O)/C=C/C(=O)O [Fumaric acid] | +
O=C(O)c1cc(O)c(O)c(O)c1 [Gallic acid] | +
O=CC(=O)O [Glyoxylic acid] | +
O=C(O)CNC(=O)c1ccccc1 [Hippuric acid] | +
C[C@H](O)C(=O)O [L-lactic acid] | +
O=C(O)[C@@H](O)[C@H](O)[C@H](O)[C@@H](O)C(=O)O [Mucic acid] | +
CC(=O)N[C@H]1[C@H]([C@H](O)[C@H](O)CO)O[C@](O)(C(=O)O)C[C@@H]1O [N-acetyl-neuraminic acid] | +
CCCCCCCCCCCCCCCCCC(=O)O [Stearic acid] | +
O=C(O)C(CO)c1ccccc1 (stereo not shown) [Tropic acid] | +
CC(O)CC(=O)O (stereo not drawn) [β-hydroxybutyric acid] | +
NCCCC(=O)O [γ-Aminobutyric acid] | +
NCCCCCC(=O)O [ε-Amino-N-caproic acid] | +
Citric acid | +
